Test results from PMC3989318, “Strong Vaccine-Induced CD8 T-Cell Responses Have Cytolytic Function in a Chimpanzee Clearing HCV Infection” (PLoS ONE, 2014).
pIC50: −log10 of the molar value. Like-named read-outs stand apart in the source and are kept apart here. Where no end group is shown, it is not given here.

Tests used:
Patr-A*03∶01 [1] = biological target: T1, Patr-A*03∶01 (Pan troglodytes, UniProt P13748); assay: cell-based peptide-binding-competition-assay, Patr-A*03∶01; design: species or system chimpanzee (Pan troglodytes); conditions: competition with 500nM biotinylated indicator peptide […], overnight, europium-streptavidin DELFIA
T1 construct: expressed in transfected cells; host or cells: K562 or 721.221 cells
Procedure: A cell-based peptide-binding-competition-assay was performed as previously described. In this assay, peptides are tested for binding to transfected cell lines expressing chimpanzee class-I molecules, while competing with a biotin-labeled reference-peptide. […] After overnight incubation, excess peptide was removed by washing and indicator-peptide bound to cells was quantified using the DELFIA-system and the Victor3 1420 multilabel counter (Perkin Elmer). The binding affinity of the indicator peptide was verified using its unlabeled peptide as competitor, this is referred to as standardized competitor [15].

expanded CD8 T-cells = assay: intracellular cytokine staining of expanded CD8 T-cells after peptide restimulation; format: cell-based, chimpanzee (Pan troglodytes); conditions: two weeks after the final vaccine boost
Text: For stimulation and expansion of HCV-specific cells, two different NS3-peptide-pools were compiled: NS3vaccine was a mixture of 15-mer peptides with 11 amino acids overlap, covering the NS3-sequence of the vaccine constructs; NS3challenge was a mixture of 15-mer peptides with 11 amino acids overlap covering the NS3-variants observed in the inoculum. Identification of NS3 epitopes within NS3 was first performed via the matrix setup and confirmed in a second assay using individual peptides (peptide-sequences are listed in Table S1).
Cells isolated before infection were expanded and tested for response against peptide-pool NS3vaccine, whereas cells isolated after challenge were tested against peptide-pool NS3challenge. PBMCs isolated at the day of challenge were stimulated in two separate cultures with either NS3vaccine or NS3challenge. […]
The cytokine production profile of HCV-specific T-cell lines was determined by intracellular cytokine staining (ICS) after restimulation with NS3-peptides. […] Cell staining was analyzed on a FACSAria (BD Bioscience) and DIVA software Version 6.1.1.

Patr-A*03∶01 [2] = biological target: T1, Patr-A*03∶01; design: method as in PMID 20696916; conditions: unlabeled indicator peptide as competitor; ref [15]; read-out: IC50 of standardized competitor; cited from earlier work
[3] = MHC class I transfected K562 or 721.221 cells, regression curves of three independent experiments

Question: With `CC(C)C[C@H](NC(=O)[C@@H](NC(=O)[C@H](C)NC(=O)[C@H](C)N)[C@@H](C)O)C(=O)NCC(=O)N[C@@H](Cc1ccccc1)C(=O)NCC(=O)N[C@@H](C)C(=O)N[C@@H](Cc1ccc(O)cc1)C(=O)O` as the molecule, how does the pIC50 (Patr-A*03∶01 [1]; [3]) read?
Answer: 6.70

Question: With `CSCC[C@H](NC(=O)[C@H](Cc1ccc(O)cc1)NC(=O)[C@H](C)NC(=O)CNC(=O)[C@H](Cc1ccccc1)NC(=O)CNC(=O)[C@@H](N)CC(C)C)C(=O)N[C@@H](CO)C(=O)N[C@@H](CCCCN)C(=O)O` as the molecule, how does the pIC50 (Patr-A*03∶01 [1]; [3]) read?
Answer: 7.52

Question: Which results are given for “IRTGVRTITTGGPIT [p64, 15-mer NS3 peptide]”?
Answer: cytokine induction in expanded CD8 T-cells (expanded CD8 T-cells; Vac1): did not induce cytokine production; cytokine induction in expanded CD8 T-cells (expanded CD8 T-cells; Vac2): moderate dual IFNγ/IL-2 and IFNγ/TNFa cytokine production

Question: With KGGLRPRAG [reference compound] as the molecule, how does the pIC50 (Patr-A*03∶01 [1]; transfected K562 or 721.221 cells, two individual experiments) read?
Answer: 5.09

Question: With VAATLGFGAYMSKAH [p59] as the molecule, how does the pIC50 (Patr-A*03∶01 [1]; [3]) read?
Answer: 7.22

Question: With “standardized competitor peptide of Patr-A*03∶01: unlabeled peptide of the A*03∶01 indicator peptide, used as competitor (ATALECVYK; Unlabeled: no biotin on Cys6, which carries biotin in the indicator form)” as the molecule, how does the pIC50 (Patr-A*03∶01 [2]) read?
Answer: 5.82
